ChEMBL document CHEMBL6103597, “Opto-Epigenetic Regulation of Histone Arginine Asymmetric Dimethylation via Type I Protein Arginine Methyltransferase Inhibition” (J Med Chem, 2025)
Active and inactive are the calls of the source. No cut-off for these calls is given here.

Key:
[1] = target: Protein arginine N-methyltransferase 6 (Homo sapiens) (UniProt Q96LA8); assay: Inhibition of PRMT6 in human A549 cells assessed as decrease in H4R3me2a level at 0.1 uM incubated for 24 hrs by Western blot analysis; type: cell-based
Protein arginine N-methyltransferase 6 (Homo sapiens), sequence (Q96LA8 whole entry, looked up): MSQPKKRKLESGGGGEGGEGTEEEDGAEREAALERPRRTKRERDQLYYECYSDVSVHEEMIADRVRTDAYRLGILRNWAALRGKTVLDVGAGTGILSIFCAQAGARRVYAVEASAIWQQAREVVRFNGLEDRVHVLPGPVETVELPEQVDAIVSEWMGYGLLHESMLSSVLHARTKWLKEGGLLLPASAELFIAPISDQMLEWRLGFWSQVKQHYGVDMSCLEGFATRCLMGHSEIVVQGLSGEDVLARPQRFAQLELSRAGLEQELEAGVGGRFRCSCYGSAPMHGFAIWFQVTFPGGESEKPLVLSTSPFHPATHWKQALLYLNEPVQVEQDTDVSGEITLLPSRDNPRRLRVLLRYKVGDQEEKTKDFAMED

[2] = target: Protein arginine N-methyltransferase 6 (Homo sapiens) (UniProt Q96LA8); assay: Inhibition of PRMT6 in human A549 cells assessed as decrease in H3R2me2a level at 0.1 uM incubated for 24 hrs by Western blot analysis; type: cell-based
[3] = Photochemical property of compound assessed as hypsochromic shift by measuring maximum absorption peak wavelength at 10 uM upon visible light irradiation at 420 nm by UV-Vis absorption spectroscopy; type: physicochemical
[4] = Stability in PBS buffer at pH 7.4 at 37 degreeC assessed as compound remaining under dark condition measured for 72 hrs by HPLC analysis; type: physicochemical; conditions: read-out: Stability
[5] = system: A549; assay: Effect on DNA replication-related pathway in human A549 cells at 0.1 uM incubated for 24 hrs by GSEA analysis; type: functional, cell-based
[6] = Prodrug photolysis assessed as drug degradation at 10 uM upon light irradiation at 420 nm for upto 4 mins by HPLC analysis; type: ADME
[7] = system: A549; assay: Effect on transcriptomic profile in human A549 cells at 0.1 uM incubated for 24 hrs by RNA-sequencing analysis; type: functional, cell-based
[8] = system: A549; assay: Effect on transcriptomic profile in human A549 cells at 0.1 uM incubated for 24 hrs followed by light irradiation at 420 nm for 4 mins by RNA-sequencing analysis; type: functional, cell-based; conditions: time 1444.0 min
[9] = system: HUVEC; assay: Cytotoxicity against HUVEC cells at 50 uM incubated for 72 hrs under dark condition; type: toxicity, cell-based; conditions: human
[10] = system: A549; assay: Antiproliferative activity against human A549 cells assessed as cell viability at 10 uM incubated for 24 hrs followed by light irradiation at 420 nm for 4 mins and measured after 48 hrs by MTT assay relative to control; type: functional; conditions: A549, light or radiation study, 72.07 h, time 4324 min, read-out: Activity
[11] = system: A549; assay: Effect on cell cycle-related pathway in human A549 cells at 0.1 uM incubated for 24 hrs followed by light irradiation at 420 nm for 4 mins by GSEA analysis; type: functional, cell-based; conditions: time 1444.0 min
[12] = system: A549; assay: Antiproliferative activity against human A549 cells assessed as cell viability at 10 uM incubated for 72 hrs by MTT assay relative to control; type: functional; conditions: read-out: Activity
[13] = system: A549; assay: Effect on DNA replication-related pathway in human A549 cells at 0.1 uM incubated for 24 hrs followed by light irradiation at 420 nm for 4 mins by GSEA analysis; type: functional, cell-based; conditions: time 1444.0 min
[14] = Photochemical property of compound assessed as maximum fluorescence emission wavelength at 10 uM upon visible light irradiation at 420 nm by UV-Vis absorption spectroscopy; type: physicochemical
[15] = system: A549; assay: Effect on transcriptomic profile in human A549 cells assessed as differentially expressed genes at 0.1 uM incubated for 24 hrs followed by light irradiation at 420 nm for 4 mins by RNA-sequencing analysis relative to control; type: functional; conditions: time 1444 min, 24.07 h
[16] = system: A549; assay: Effect on cell cycle-related pathway in human A549 cells at 0.1 uM incubated for 24 hrs by GSEA analysis; type: functional, cell-based

inhibition [1] | inhibition [2] | Activity [3] [nm] | remaining at 72 h [4] [%] | Stability [6] | Activity [14] [nm] | Compound | Activity [5] | Activity [7] | Activity [8] | Activity [9] | viability at 10 µM [10] [%] | Activity [11] | viability at 10 µM [12] [%] | Activity [13] | Activity [15] [%] | Activity [16]
Active | Active |  |  |  |  | CC(C)Oc1ccc(-c2c[nH]cc2CN(C)CCN)cc1 |  |  |  |  |  |  |  |  |  | 
 |  | 380 | > 75 | Unstable | 470 | CCN(CC)c1ccc2c(COC(=O)NCCN(C)Cc3c[nH]cc3-c3ccc(OC(C)C)cc3)cc(=O)oc2c1 | No effect | No effect | Active; About 5.4:1 Ratio Between Down-Regulated And Upregulated Genes Observed | Non-toxic | 79.4 | Active; Downregulation Of Gene Sets Observed | 94.6 | Active; Downregulation Of Gene Sets Observed | ~56 | No effect
